Laboratory results: US7211572B2 (Japan Tobacco Inc., priority 2003, dated 2007)
Structures can show the parent of a compound that is named as a salt.

target: T1, HIV integrase (Human immunodeficiency virus type 1 group M subtype B, UniProt P12497, F1332H); assay: Determination of enzyme (HIV integrase) inhibitory activity; assay type: biochemical; conditions: recombinant HIV integrase (F185H), strand transfer ELISA, absorbance at 450 nm
T1 construct: HIV integrase full length gene; made in house; host or cells: Escherichia coli BL21(DE3), plasmid pET21a-INH
Outline: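 Full-length integrase with F185H, expressed in E. coli and purified, was reacted for 60 min at 37 °C with compound and biotinylated donor DNA bound to streptavidin plates. Target DNA was added for 10 min, then anti-digoxigenin-peroxidase detection at A450; IC50 from % inhibition versus enzyme-free blank.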

Question: With O=C1c2c(O)c(=O)c(-c3ccccn3)cn2CCN1Cc1ccc(F)c(Cl)c1 [Example 327, 2-(3-chloro-4-fluorobenzyl)-9-hydroxy-7-(pyridin-2-yl)-3,4-dihydro-2H-pyrido[1,2-a]pyrazine-1,8-dione hydrochloride] as the molecule, how does the IC50 read?
Answer: < 10 nM

Question: Which IC50 does the source give for O=C1c2c(O)c(=O)c(-c3cccnc3)cn2CCN1Cc1cccc(Cl)c1F [Example 328, 2-(3-chloro-2-fluorobenzyl)-9-hydroxy-7-(pyridin-3-yl)-3,4-dihydro-2H-pyrido[1,2-a]pyrazine-1,8-dione hydrochloride] here?
Answer: 10 to 100 nM

Question: How did the IC50 turn out when O=C1c2c(O)c(=O)c(-c3ccccn3)cn2CCN1CCCc1c(F)cccc1Cl [Example 329, 2-[3-(2-chloro-6-fluorophenyl)propyl]-9-hydroxy-7-(pyridin-2-yl)-3,4-dihydro-2H-pyrido[1,2-a]pyrazine-1,8-dione hydrochloride] was run?
Answer: 10 to 100 nM

Question: How did the IC50 turn out when O=C1c2c(O)c(=O)c(-c3nccs3)cn2CCN1Cc1cc2ccccc2o1 [Example 330, 2-(benzofuran-2-ylmethyl)-9-hydroxy-7-(thiazol-2-yl)-3,4-dihydro-2H-pyrido[1,2-a]pyrazine-1,8-dione] was run?
Answer: < 10 nM

Question: With O=C(NC(Cc1ccccc1)c1ccccc1)c1cn2c(c(O)c1=O)C(=O)N(Cc1cccc(Cl)c1)CC2 (centres unmarked) [Example 331, N-(1,2-diphenylethyl)-2-(3-chlorobenzyl)-9-hydroxy-1,8-dioxo-1,3,4,8-tetrahydro-2H-pyrido[1,2-a]pyrazine-7-carboxamide] as the molecule, how does the IC50 read?
Answer: 10 to 100 nM

Question: Which IC50 does the source give for CC(=O)Nc1cn2c(c(O)c1=O)C(=O)N(Cc1cccc(Cl)c1F)CC2 [Example 332, N-[2-(3-chloro-2-fluorobenzyl)-9-hydroxy-1,8-dioxo-1,3,4,8-tetrahydro-2H-pyrido[1,2-a]pyrazin-7-yl]acetamide] here?
Answer: 10 to 100 nM

Question: With O=C1c2c(O)c(=O)c(-c3nccs3)cn2CCN1CCCc1ccccc1F [Example 333, 2-[3-(2-fluorophenyl)propyl)-9-hydroxy-7-(thiazol-2-yl)-3,4-dihydro-2H-pyrido[1,2-a]pyrazine-1,8-dione] as the molecule, how does the IC50 read?
Answer: 10 to 100 nM

Question: How did the IC50 turn out when O=C(NC(CCc1ccccc1)c1ccccc1)c1cn2c(c(O)c1=O)C(=O)N(Cc1cccc(Cl)c1)CC2 (centres unmarked) [Example 334, N-(1,3-diphenylpropyl)-2-(3-chlorobenzyl)-9-hydroxy-1,8-dioxo-1,3,4,8-tetrahydro-2H-pyrido[1,2-a]pyrazine-7-carboxamide] was run?
Answer: 10 to 100 nM

Question: Which IC50 does the source give for CNC(=O)c1cc(F)ccc1CCCN1CCn2cc(-c3nccs3)c(=O)c(O)c2C1=O [Example 335, 5-fluoro-2-{3-[9-hydroxy-1,8-dioxo-7-(thiazol-2-yl)-1,3,4,8-tetrahydro-pyrido[1,2-a]pyrazin-2-yl]propyl)-N-methylbenzamide] here?
Answer: 10 to 100 nM

Question: For CC(C)(C)C(=O)c1cn2c(c(O)c1=O)C(=O)N(CCCc1c(F)cccc1Cl)CC2 [Example 336, 2-[3-(2-chloro-6-fluorophenyl)propyl]-7-(2,2-dimethylpropionyl)-9-hydroxy-3,4-dihydro-2H-pyrido[1,2-a]pyrazine-1,8-dione], which IC50 is on record?
Answer: < 10 nM

Question: CC(C)C(=O)c1cn2c(c(O)c1=O)C(=O)N(Cc1cccc(Cl)c1)CC2 [Example 337, 2-(3-chlorobenzyl)-9-hydroxy-7-isobutyryl-3,4-dihydro-2H-pyrido[1,2-a]pyrazine-1,8-dione] was tested. Which IC50 did it give?
Answer: < 10 nM

Question: O=C1c2c(O)c(=O)c(-c3nccs3)cn2CCN1CCCCc1ccccc1 [Example 338, 9-hydroxy-2-(4-phenylbutyl)-7-(thiazol-2-yl)-3,4-dihydro-2H-pyrido[1,2-a]pyrazine-1,8-dione hydrochloride] was tested. Which IC50 did it give?
Answer: 10 to 100 nM

Question: How did the IC50 turn out when CCCCCN1CCn2cc(-c3nccs3)c(=O)c(O)c2C1=O [Example 339, 9-hydroxy-2-pentyl-7-(thiazol-2-yl)-3,4-dihydro-2H-pyrido[1,2-a]pyrazine-1,8-dione hydrochloride] was run?
Answer: 100 to 1000 nM

Question: How did the IC50 turn out when O=C1c2c(O)c(=O)c(-c3ccncc3)cn2CCN1Cc1cccc(Cl)c1F [Example 340, 2-(3-chloro-2-fluorobenzyl)-9-hydroxy-7-(pyridin-4-yl)-3,4-dihydro-2H-pyrido[1,2-a]pyrazine-1,8-dione hydrochloride] was run?
Answer: < 10 nM
